Results published in patent publication US20260240878A1, “PTP1B/TC-PTP DUAL INHIBITORS AND PROTEIN DEGRADERS” (Purdue Research Foundation, priority 2023, published 2026).
*1 amine or outer side, *2 acyl side, *3 side chain or, on linkers, in order; H or OH if unused. Where a SMILES comes first, the peptide text is derived from it. [ ]: non-standard residue; d: D form. The star is where a group is joined. NHCH2(1,3-C6H4)CH2CO = O=C(Cc1cccc(CN[*:1])c1)[*:2]; F2Pmp = N[C@@H](Cc1ccc(C(F)(F)P(=O)(O)O)cc1)C(=O)O; Phenylacetyl(4-OH,3-OMe) = COc1cc(CC(=O)*)ccc1O; Benzoyl(3-Br,4-Me) = Cc1ccc(C(=O)*)cc1Br; X1 = Cc1ncsc1-c1ccc([C@H](C)N*)cc1; Hyp = O=C(O)[C@@H]1C[C@@H](O)CN1; Tle = CC(C)(C)[C@H](N)C(=O)O

Columns and labels:
PTP1B = target: T1, PTP1B (Homo sapiens, UniProt P18031); experiment: Degradation assay in HEK293 cells (immunoblotting); assay type: cell-based; design: endogenous in cells; host or cells: HEK293; details: 0.2 μM degrader, 16 hours
T1 sequence (P18031 1-435): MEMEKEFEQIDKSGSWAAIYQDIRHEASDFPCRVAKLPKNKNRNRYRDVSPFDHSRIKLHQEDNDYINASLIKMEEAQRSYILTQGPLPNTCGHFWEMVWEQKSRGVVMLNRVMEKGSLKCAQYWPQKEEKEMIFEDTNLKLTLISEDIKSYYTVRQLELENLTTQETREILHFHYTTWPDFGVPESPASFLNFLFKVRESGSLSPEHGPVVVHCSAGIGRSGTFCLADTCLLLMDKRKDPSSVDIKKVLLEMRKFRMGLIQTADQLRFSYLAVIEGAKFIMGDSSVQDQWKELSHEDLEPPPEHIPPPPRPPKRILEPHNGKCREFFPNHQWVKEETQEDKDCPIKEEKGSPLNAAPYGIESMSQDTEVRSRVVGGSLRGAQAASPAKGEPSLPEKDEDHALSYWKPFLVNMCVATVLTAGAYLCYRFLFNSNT

TC-PTP [1] = target: T2, TC-PTP (Homo sapiens, UniProt P17706); experiment: Degradation assay in HEK293 cells (immunoblotting); assay type: cell-based; design: endogenous in cells; host or cells: HEK293; details: 0.2 μM degrader, 16 hours, read-out: % Protein Degradation TC-PTP
T2 sequence (P17706 1-415): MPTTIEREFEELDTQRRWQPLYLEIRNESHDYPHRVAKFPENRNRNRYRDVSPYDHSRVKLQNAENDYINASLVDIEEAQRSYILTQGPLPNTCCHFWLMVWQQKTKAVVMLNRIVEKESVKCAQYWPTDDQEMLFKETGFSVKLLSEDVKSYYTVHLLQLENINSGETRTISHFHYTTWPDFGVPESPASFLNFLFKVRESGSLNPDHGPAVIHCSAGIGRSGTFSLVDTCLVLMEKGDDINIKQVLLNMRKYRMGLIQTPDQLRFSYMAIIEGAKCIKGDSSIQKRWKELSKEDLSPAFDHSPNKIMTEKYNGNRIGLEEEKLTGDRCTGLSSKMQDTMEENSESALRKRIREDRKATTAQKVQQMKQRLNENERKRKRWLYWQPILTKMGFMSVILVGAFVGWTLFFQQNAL

TC-PTP [2] = target: T2, TC-PTP; experiment: Degradation assay in HEK293 cells (immunoblotting); assay type: cell-based; design: Degradation assay was conducted in HEK293 cells with 1 μM degrader and 24 hours incubation; endogenous in cells; host or cells: HEK293; details: 16 hours, dose response
[3] = Pharmacokinetic study in mice (i.p., different formulas); assay type: in vivo, mouse; details: PBS buffer compared to saline
Experimental: Plasma concentrations of compound 47 were measured by LCMS after i.p. injection with different formulas at the indicated time.
For the PK study, C57BL6 female mice (25-30 g body weight) were injected intraperitoneally with 25 or 50 mg/kg compound 47 dissolved in 0.4 ml saline. Blood samples were collected through the tail vein at indicated time points after injection. Isoflurane was used as an anesthetic. All blood samples were centrifuged at 1,500 g for 5 minutes, and plasma was separated and stored at −80° C. until analysis by a validated method based on reversed-phase liquid chromatography coupled to mass-spectrometric detection (LC/MS) using a reported procedure (Journal of Clinical Investigation, 2018, 128, 816-825), which is hereby specifically incorporated by reference for its teachings regarding same (FIG. 5A).
Saline was replaced by PBS buffer in the treatment of compound 47 in mice to improve PK properties (FIG. 10). Both Cmax and area under the curve (AUC) were increased compared to the above method with saline.

Compound: COc1cc(CC(=O)N[C@@H](Cc2ccccc2)C(=O)N[C@@H](Cc2ccc(C(F)(F)P(=O)(O)O)cc2)C(=O)N[C@@H](CCCCNC(=O)c2ccc(C)c(Br)c2)C(=O)NCc2cccc(CC(=O)N[C@H](C(=O)N3C[C@H](O)C[C@H]3C(=O)N[C@@H](C)c3ccc(-c4scnc4C)cc3)C(C)(C)C)c2)ccc1O [Compound 47, ((4-((S)-3-(((S)-6-(3-bromo-4-methylbenzamido)-1-((3-(2-(((S)-1-((2S,4R)-4-hydroxy-2-(((S)-1-(4-(4-methylthiazol-5-yl)phenyl)ethyl)carbamoyl)pyrrolidin-1-yl)-3,3-dimethyl-1-oxobutan-2-yl)amino)-2-oxoethyl)benzyl)amino)-1-oxohexan-2-yl)amino)-2-((S)-2-(2-(4-hydroxy-3-methoxyphenyl)acetamido)-3-phenylpropanamido)-3-oxopropyl)phenyl)difluoromethyl)phosphonic Acid] ({Phenylacetyl(4-OH,3-OMe)}-F[F2Pmp]K(Benzoyl(3-Br,4-Me))[NHCH2(1,3-C6H4)CH2CO][Tle][Hyp]-X1)
- % Protein Degradation PTP1B (PTP1B): 95%
- percent TC-PTP degradation at 0.2 µM (TC-PTP [1]): 92%
- TC-PTP degradation (TC-PTP [2]): dose-dependently induced degradation of TC-PTP
- Cmax [3]: increased
- area under the curve (AUC) [3]: increased
